The source of these data is ChEMBL document CHEMBL5038628, “Discovery of spiro amide SHR902275: A potent, selective, and efficacious RAF inhibitor targeting RAS mutant cancers” (Eur J Med Chem, 2022).

In brackets after ≈: the same amount, converted by molar mass. Bounds are passed on as bounds.

One data set concerns NCI-H358. The data set is described as follows: Cytotoxicity against human NCI-H358 cells assessed as inhibition of growth measured after 72 hrs by CellTiter-Glo luciferase assay. The data set is classed as functional. On the technique in general: In ATP-based viability assays light output follows the ATP content of the culture.
Data set [1] deals with RAF proto-oncogene serine/threonine-protein kinase (Homo sapiens, UniProt P04049). The data set is described as follows: Inhibition of human recombinant cRAF measured after 60 mins by TR-FRET assay. (In general: In TR-FRET formats the signal depends on donor and acceptor labels being close together.)
RAF proto-oncogene serine/threonine-protein kinase, sequence (P04049 whole entry): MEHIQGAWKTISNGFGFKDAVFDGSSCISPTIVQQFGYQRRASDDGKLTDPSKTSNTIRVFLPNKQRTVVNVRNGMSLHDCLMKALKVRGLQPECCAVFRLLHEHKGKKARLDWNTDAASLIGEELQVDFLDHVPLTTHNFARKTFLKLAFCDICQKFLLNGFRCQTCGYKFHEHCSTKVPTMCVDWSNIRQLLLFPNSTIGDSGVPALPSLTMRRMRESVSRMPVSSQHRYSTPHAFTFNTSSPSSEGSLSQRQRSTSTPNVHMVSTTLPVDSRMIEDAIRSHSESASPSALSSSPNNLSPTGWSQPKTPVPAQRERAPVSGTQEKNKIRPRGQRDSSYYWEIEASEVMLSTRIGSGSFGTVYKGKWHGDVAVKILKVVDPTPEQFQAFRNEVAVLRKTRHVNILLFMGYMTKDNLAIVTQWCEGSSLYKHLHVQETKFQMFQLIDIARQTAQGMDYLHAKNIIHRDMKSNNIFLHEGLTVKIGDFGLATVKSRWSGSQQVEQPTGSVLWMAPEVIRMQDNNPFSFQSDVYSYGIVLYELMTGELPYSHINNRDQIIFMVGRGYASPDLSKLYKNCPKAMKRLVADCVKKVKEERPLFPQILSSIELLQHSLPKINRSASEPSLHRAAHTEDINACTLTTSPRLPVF
A short description of data set [2]: Solubility of the compound at pH 7.4. The settings on record: buffer.
The nature of data set [3]: Metabolic stability in human liver microsomes assessed as half life. It counts as ADME, Microsome.
Data set [4] can be described thus: AUC (0 to t) in Sprague-Dawley rat plasma at 2 mg/kg, IG by LC-MS/MS analysis. It counts as ADME, organism-based. Details: dose 2 mg/kg. The settings on record: Sprague-Dawley, plasma, po.
Data set [5] in a line: Oral bioavailability in Sprague-Dawley rat by LC-MS/MS analysis. The data set is classed as ADME, organism-based. The settings on record: Sprague-Dawley, in vivo.
The nature of data set [6]: Half life in Sprague-Dawley rat plasma at 1 mg/kg, iv by LC-MS/MS analysis. The data set is classed as ADME, organism-based.
Data set [7] is described as follows: Clearance in Sprague-Dawley rat plasma at 1 mg/kg, iv by LC-MS/MS analysis. The data set is classed as ADME, organism-based.
The nature of data set [8]: Cmax in Sprague-Dawley rat plasma at 2 mg/kg, IG by LC-MS/MS analysis. The data set is classed as ADME, organism-based. On the set-up: route […], dose 2 mg/kg. The settings on record: po.
Data set [9] in a line: MRT (0 to infinity) in Sprague-Dawley rat plasma at 1 mg/kg, iv by LC-MS/MS analysis. The data set is classed as ADME, organism-based. The settings on record: in vivo.
Data set [10] can be described thus: AUC (0 to t) in Sprague-Dawley rat plasma at 1 mg/kg, iv by LC-MS/MS analysis. It counts as ADME, organism-based. On the set-up: dose 1 mg/kg.

As a reminder, the GI50 is the concentration at which growth is held to half of that of the control. As a reminder, the IC50 is the midpoint of a concentration-inhibition curve. The solubility is the dissolved amount per volume that the medium holds. As usually defined, the half-life is how long it takes for the measured level to halve. The AUC(0-t) is exposure summed from dosing to a finite time, without extrapolation to infinity. A lower AUC(0-t) goes with less exposure. What is called bioavailability is the share of a dose that reaches the circulation, judged against a reference dose that is usually intravenous. Read a low bioavailability as little systemic uptake. The clearance is the rate of elimination divided by the concentration. A higher clearance goes with a high capacity for elimination. As a reminder, the Cmax is the maximum level reached in the sampled fluid or tissue. As usually defined, the MRT is the average time that molecules of a dose stay in the body.

As for `Cc1ccc(NC(=O)c2ccnc(C(F)(F)F)c2)cc1-c1ccc2c(c1)OC1(CCOCC1)CN(CCN(C)C)C2=O`, in the data set on NCI-H358, the GI50 came to 7.6 µM. Further, the IC50 in data set [1] is 0.013 µM.
On to `Cc1ccc(NC(=O)c2cc(C(F)(F)F)ncn2)cc1-c1ccc2c(c1)OC1(CCOCC1)CC(=O)N2`, for which the solubility in data set [2] is 0.35 µM (≈ 0.179 µg/mL). Further, the GI50 in the data set with NCI-H358 amounted to 2.7 µM. For the same compound, the IC50 in [1] worked out at 0.0055 µM.
The matching figures for `Cc1ccc(NC(=O)c2ccnc(C(F)(F)F)c2)cc1-c1ccc2c(c1)OC1(CCOCC1)CN(C)C2=O`: 8.5 µM (≈ 4.47 µg/mL), 2.9 µM and 0.0013 µM.
As for `Cc1ccc(NC(=O)c2ccnc(C(F)(F)F)c2)cc1-c1ccc2c(c1)OC1(CCOCC1)CNC2`, the GI50 in the data set with NCI-H358 turned out to be 15 µM. Moreover, in [1], the IC50 stood at 0.0043 µM.
Compound `Cc1ccc(NC(=O)c2cncc(C(F)(F)F)c2)cc1-c1ccc2c(c1)OC1(CCOCC1)CC(=O)N2` registered a solubility in data set [2] of 0.06 µM (≈ 0.0307 µg/mL). Moreover, the GI50 in the data set on NCI-H358 is 1.6 µM. The IC50 in data set [1] worked out at 0.0054 µM.
With `Cc1ccc(NC(=O)c2ccc(C(F)(F)F)s2)cc1-c1ccc2c(c1)OC1(CCOCC1)CC(=O)N2`, the GI50 with NCI-H358 amounted to 3.4 µM. Further, the IC50 in [1] is 0.069 µM.
On to `Cc1ccc(NC(=O)c2cc(OC3CC3)cnn2)cc1-c1ccc2c(c1)OC1(CCOCC1)CC(=O)N2`, for which the concentration for 50% growth inhibition (GI50) with NCI-H358 turned out to be 1.9 µM. For the same compound, the half-life in data set [3] was 6.8 min. In addition, the IC50 in [1] was 0.0034 µM.
For `Cc1ccc(NC(=O)c2cc(C(F)(F)F)ccn2)cc1-c1ccc2c(c1)OC1(CCOCC1)CC(=O)N2`, the concentration in solution in [2] (solubility) was 1.4 µM (≈ 0.716 µg/mL). In addition, in the data set on NCI-H358, the GI50 is 2.9 µM. Further, the IC50 in data set [1] turned out to be 0.0113 µM.
In the case of `Cc1ccc(NC(=O)c2ccnc(C(F)(F)F)c2)cc1-c1ccc2c(c1)OC1(CCOCC1)CCO2`, in the data set with NCI-H358, the GI50 amounted to 8.5 µM. In addition, the half-maximal inhibitory concentration (IC50) in data set [1] was found to be 0.032 µM.
In the case of `Cc1ccc(NC(=O)c2ccnc(C(F)(F)F)n2)cc1-c1ccc2c(c1)OC1(CCOCC1)CC(=O)N2`, the 50% growth inhibitory concentration (GI50) in the data set with NCI-H358 is 12 µM. In data set [1], the IC50 amounted to 0.334 µM.
`Cc1ccc(NC(=O)c2ccnc(OC(F)F)c2)cc1-c1ccc2c(c1)OC1(CCOCC1)CC(=O)N2` registered a solubility in [2] of 0.16 µM (≈ 0.0815 µg/mL). Moreover, the area under the curve AUC(0-t) in data set [4] is 455 ng·h/mL. In data set [5], this compound registered a bioavailability of 22%. Also, the GI50 with NCI-H358 is 0.9 µM. In data set [6] (Sprague-Dawley, plasma), this compound showed a half-life of 90 min. Moreover, in [7], the clearance was 16.7 mL/min/kg. The compound also yielded a peak concentration (Cmax) in data set [8] of 107 ng/mL. The half-inhibitory concentration (IC50) in data set [1] is 0.0041 µM.
For `Cc1ccc(NC(=O)c2ccnc(C(F)(F)F)c2)cc1-c1ccc2c(c1)OC1(CCOCC1)CN(CCO)C2=O`, in data set [2], the solubility stood at 311 µM (≈ 173 µg/mL). The compound further registered an exposure AUC(0-t) in [4] of 29 ng·h/mL. The compound further displayed a bioavailability in [5] of 3.47%. In the data set with NCI-H358, the GI50 is 3.2 µM. The clearance in data set [7] is 40.4 mL/min/kg. The same compound returned a Cmax in data set [8] of 5.9 ng/mL. In [1], the IC50 stood at 0.0013 µM.
As to `Cc1ccc(NC(=O)c2cc(OCCO)nc(C(F)(F)F)c2)cc1-c1ccc2c(c1)OC1(CCOCC1)CC(=O)N2`, the GI50 in the data set with NCI-H358 was 4.3 µM. For the same compound, the concentration for half-maximal inhibition (IC50) in [1] came to 0.026 µM.
Regarding `Cc1ccc(NC(=O)C2CCNC(C(F)(F)F)C2)cc1-c1ccc2c(c1)OC1(CCOCC1)CC(=O)N2` (stereo unspecified), the GI50 in the data set with NCI-H358 was greater than 30 µM. For the same compound, the IC50 in data set [1] stood at 0.0033 µM.
Consider `COc1ccc(NC(=O)c2ccnc(C(F)(F)F)c2)cc1-c1ccc2c(c1)OC1(CCOCC1)CC(=O)N2`, for which, in the data set on NCI-H358, the 50% growth inhibitory concentration (GI50) stood at 5.9 µM. Moreover, the IC50 in [1] came to 0.0036 µM.
In data set [2], `Cc1ccc(NC(=O)c2cc(OCCO)nc(OC(F)F)c2)cc1-c1ccc2c(c1)OC1(CCOCC1)CC(=O)N2` had a solubility of 0.41 µM (≈ 0.234 µg/mL). Moreover, the 50% growth inhibitory concentration (GI50) in the data set with NCI-H358 worked out at 2 µM. Also, the IC50 in data set [1] was 0.0092 µM.
`Cc1ccc(NC(=O)c2ccnc(C(F)(F)F)c2)cc1-c1ccc2c(c1)OC1(CCOCC1)CN(CC(C)(C)O)C2=O`: the GI50 in the data set on NCI-H358 worked out at 6.2 µM. Also, the half-maximal inhibitory concentration (IC50) in data set [1] is 0.034 µM.
`Cc1ccc(NC(=O)c2ccnc(C(F)(F)F)c2)cc1-c1ccc2c(c1)OC1(CCOCC1)CNC2=O` returned a solubility in [2] of 10.4 µM (≈ 5.32 µg/mL). The compound further registered an area under the curve AUC(0-t) in data set [4] of 41.3 ng·h/mL. The GI50 in the data set with NCI-H358 is 2.9 µM. In data set [8], the Cmax turned out to be 7.7 ng/mL. The IC50 in [1] worked out at 0.0036 µM.
In the case of `O=C1CC2(CCOCC2)Oc2cc(-c3cc(NC(=O)c4ccnc(C(F)(F)F)c4)ccc3CO)ccc2N1`, the 50% growth inhibitory concentration (GI50) with NCI-H358 stood at 21 µM. The IC50 in data set [1] turned out to be 0.0035 µM.
As for `Cc1cc(F)c(NC(=O)Nc2ccnc(C(F)(F)F)c2)cc1-c1ccc2c(c1)OC1(CCOCC1)CC(=O)N2`, the mean residence time MRT in data set [9] was 11.4 min. Besides, the 50% growth inhibitory concentration (GI50) in the data set with NCI-H358 stood at 0.2 µM. This compound displayed an AUC(0-t) in data set [10] of 154 ng·h/mL. The compound further showed a t1/2 in data set [6] (in vivo, 1 mg/kg) of 22.2 min. Moreover, in [7], the clearance was determined as 120 mL/min/kg. Moreover, the IC50 in data set [1] came out at 0.0067 µM.
As to `Cc1ccc(NC(=O)c2ccnc(C(F)(F)F)c2)nc1-c1ccc2c(c1)OC1(CCOCC1)CC(=O)N2`, the GI50 in the data set with NCI-H358 is greater than 30 µM. Also, the IC50 in data set [1] came to 0.0022 µM.
